{"source": "patent US4440778A", "about": "“Anti-inflammatory analgesic cataplasm and process for producing the same” (Kowa Co., Ltd., priority 1981, dated 1984)", "origin": "cited, not measured here", "key": {"[1]": {"conditions": "administered orally"}, "[2]": {"experiment": "not given", "remark": "listed apart in the source"}, "[3]": {"conditions": "mixed with and suspended in base components, pH 7 or higher"}}}
{"smiles": "COc1ccc2c(c1)c(CC(=O)O)c(C)n2C(=O)c1ccc(Cl)cc1", "note": "[indomethacin, Indomethacin]", "values": [{"measurement": "adverse effects: central nervous system troubles", "setting": "[1]", "result": "central nervous system troubles such as frontal head ache, drowsiness, dizziness and mental disorders"}, {"measurement": "adverse effects: gastroenteric troubles", "setting": "[1]", "result": "gastroenteric troubles such as decreased appetite, nausea, vomiting, indigestion, diarrhoea and stomach ache"}, {"measurement": "absorbability through the skin in a pH range of 7 or higher", "setting": "[3]", "result": "less absorbable through the skin"}, {"measurement": "percutaneous absorption", "setting": "stratum corneum and basal cell layer act as barriers", "result": "not subject to percutaneous absorption"}, {"measurement": "chemical stability when dissolved in an alkaline solution", "setting": "[2]; alkaline solution", "result": "chemically unstable and readily decomposable"}, {"measurement": "solubility in an alkaline solution", "setting": "[2]; alkaline solution", "result": "soluble in an alkaline solution"}, {"measurement": "stability in a pH range of 7 or higher", "setting": "[2]; [3]", "result": "less stable"}, {"measurement": "solubility in water", "setting": "[2]; water", "result": "insoluble in water"}]}
